pKi: −log10 of the molar value.
Columns and labels:
[1] = target: T1, Human Histamine H3 Receptor (Homo sapiens, UniProt Q9Y5N1); test: Methyl histamine binding in human histamine H3 receptor cell line; conditions: read-out: H3 Binding Ki
T1 construct: expressed in transfected cells; host or cells: HEK293T (stably transfected; membranes prepared from the cells)
In short: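 Radioligand binding on membranes (10 μg/well) from a human H3 receptor cell line, 1 nM radioligand, 1 h at 30° C. in 50 mM Tris pH 7.5. Nonspecific binding defined with 10 uM clobenpropit, followed by filtration and scintillation counting. IC50 from four-parameter fit, converted to Ki by Cheng-Prusoff.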

T1 sequence (Q9Y5N1 whole entry): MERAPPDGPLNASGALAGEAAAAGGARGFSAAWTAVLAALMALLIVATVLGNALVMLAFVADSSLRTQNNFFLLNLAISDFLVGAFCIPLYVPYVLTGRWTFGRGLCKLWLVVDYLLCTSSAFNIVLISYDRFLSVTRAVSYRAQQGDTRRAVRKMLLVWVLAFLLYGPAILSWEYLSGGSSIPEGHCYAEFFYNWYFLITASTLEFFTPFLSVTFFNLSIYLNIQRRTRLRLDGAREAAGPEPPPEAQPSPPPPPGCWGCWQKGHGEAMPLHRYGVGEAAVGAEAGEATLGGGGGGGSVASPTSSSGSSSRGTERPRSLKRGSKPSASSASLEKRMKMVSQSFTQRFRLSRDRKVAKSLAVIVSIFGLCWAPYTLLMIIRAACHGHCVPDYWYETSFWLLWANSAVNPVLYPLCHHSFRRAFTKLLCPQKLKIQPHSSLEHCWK

melting point [°C] | pKi [1] | Structure (SMILES)
223 to 224 | > 8.00 | CC(C)NC(=O)c1ccc(Oc2ccc3c(c2)CCN(CCN2CCCC2)C3=O)cc1 [Example 94, N-isopropyl-4-{[1-oxo-2-(2-pyrrolidin-1-ylethyl)-1,2,3,4-tetrahydroisoquinolin-6-yl]oxy}benzamide]
185 to 186 | > 8.00 | O=C1c2ccc(-n3ncc4ccccc43)cc2CCN1CCN1CCCC1 [Example 36, 6-(1H-indazol-1-yl)-2-(2-(pyrrolidin-1-yl)ethyl)-3,4-dihydroiso-quinolin-1(2H)-one hydrochlroride]
244 to 246 | > 8.00 | O=C(c1ccc(-c2ccc3c(c2)CCN(CCN2CCCC2)C3=O)cc1)C1CC1 [Example 103, 6-[4-(cyclopropylcarbonyl)phenyl]-2-(2-pyrrolidin-1-ylethyl)-3,4-dihydro-isoquinolin-1(2H)-one]
214 to 216 | 7.60 to 8.00 | C[C@@H]1CCCN1CCN1Cc2cc(-c3ccc(C#N)cc3)ccc2C1=O [Example 117, (R)-4-(2-(2-(2-methylpyrrolidin-1-yl)ethyl)-1-oxoisoindolin-5-yl)benzonitrile]
272 to 274 | 7.00 to 7.30 | Fc1ccc(-c2ccc3c(c2)CCN(CCN2CCCCC2)C3)cc1 [Example 174, 6-(4-fluorophenyl)-2-(2-piperidin-1-ylethyl)-1,2,3,4-tetrahydroisoquinoline]
232 to 234 | 7.30 to 7.60 | C[C@@H]1CCCN1CCN1CCc2cc(-c3ccc(F)cc3)ccc2C1 [Example 172, 6-(4-fluorophenyl)-2-{2-[(2R)-2-methylpyrrolidin-1-yl]ethyl}-1,2,3,4-tetrahydroisoquinoline]
235 to 236 | 7.60 to 8.00 | CNC(=O)c1ccc(Oc2ccc3c(c2)CCN(CCN2CCCC2)C3=O)cc1 [Example 92, N-methyl-4-{[1-oxo-2-(2-pyrrolidin-1-ylethyl)-1,2,3,4-tetrahydroisoquinolin-6-yl]oxy}benzamide]
258 to 260 | < 7.00 | Fc1ccc(-c2ccc3c(c2)CCN(CCN2CCCCCC2)C3)cc1 [Example 175, 2-(2-azepan-1-ylethyl)-6-(4-fluorophenyl)-1,2,3,4-tetrahydroisoquinoline]
153 to 155 | > 8.00 | CS(=O)(=O)c1ccc(-c2ccc3c(c2)CCN(CCN2CCCC2)C3=O)cc1 [Example 135, 6-[4-(methylsulfonyl)phenyl]-2-(2-pyrrolidin-1-ylethyl)-3,4-dihydroisoquinolin-1(2H)-one]
231 to 232 | > 8.00 | O=C(c1ccc(-c2ccc3c(c2)CCN(CCN2CCCC2)C3=O)cc1F)N1CCCC1 [Example 133, 6-[3-fluoro-4-(pyrrolidin-1-ylcarbonyl)phenyl]-2-(2-pyrrolidin-1-ylethyl)-3,4-dihydroisoquinolin-1(2H)-one]
> 230 | < 7.00 | FC(F)(F)Oc1ccc(-c2ccc3c(c2)CCN(CCN2CCCC2)C3)cc1 [Example 171, 2-(2-pyrrolidin-1-ylethyl)-6-[4-(trifluoromethoxy)phenyl]-1,2,3,4-tetrahydroisoquinoline]
272 to 274 | 7.00 to 7.30 | Fc1cccc(-c2ccc3c(c2)CCN(CCN2CCCC2)C3)c1 [Example 173, 6-(3-fluorophenyl)-2-(2-pyrrolidin-1-ylethyl)-1,2,3,4-tetrahydroisoquinoline]
184 to 185 | < 7.00 | C[C@@H]1CCCN1CCN1Cc2cc(-c3ccc(C(=O)N4CCCC4)cc3)ccc2C1=O [Example 119, 2-{2-[(2R)-2-methylpyrrolidin-1-yl]ethyl}-5-[4-(pyrrolidin-1-ylcarbonyl)phenyl]-isoindolin-1-one]
227 to 228 | > 8.00 | O=C(NC1CC1)c1ccc(Oc2ccc3c(c2)CCN(CCN2CCCC2)C3=O)cc1 [Example 99, N-cyclopropyl-4-{[1-oxo-2-(2-pyrrolidin-1-ylethyl)-1,2,3,4-tetrahydroisoquinolin-6-yl]oxy}benzamid;e]

From patent US20090069300A1, “ISOQUINOLINYL AND ISOINDOLINYL DERIVATIVES AS HISTAMINE-3 ANTAGONISTS” (Wyeth, priority 2007, published 2009)
